From patent US20260091015A1, “TREATING IRON DEFICIENCY WITH FERRIC CARBOXYMALTOSE” (PHARMACOSMOS HOLDING A/S, priority 2018, published 2026)

Columns and labels:
[1] = clinical trials and case reports; Wolf et al., 2013; cited from earlier work
human intact FGF23 = assay: Intact FGF23 (iFGF23) over time, two-site ELISA, trials IDA-04/IDA-05; type: in vivo; conditions: single dose 1000 mg at baseline
Protocol: The trial was a randomized, open-label, comparative trial. Subjects with Iron Deficiency Anaemia (IDA) were randomized 1:1 to one treatment course of one of the following treatments: • Group A: iron isomaltoside 1000 (Monofer®, Pharmacosmos, Holbok, Denmark, termed iron isomaltoside in the following), 1000 mg at baseline • Group B: ferric carboxymaltose (Ferinject®/Injectafer®, Vifor Inc, Switzerland), 750 mg at baseline and day 7, cumulative dose: 1500 mg
The secondary safety endpoints were the following: • Incidence of s-phosphate below 1.0 mg/dL at any time from baseline to day 35 • Time with hypophosphatemia (i.e. time with s-phosphate <2.0 mg/dL) from baseline to day 35 • Proportion of subjects with hypophosphatemia at day 35 • Absolute [Δ] and relative [%] changes in s-phosphate from baseline to 1, 7, 8, 14, 21, and 35 • Fractional phosphate urinary excretion at 1, 7, 8, 14, 21, and 35 • Change in iFGF23, cFGF23, vitamin D (25, 1,25, 24,25), PTH, and ionized calcium from baseline to 1, 7, 8, 14, 21, and 35 • Type and incidence of AEs • Serious or severe hypersensitivity reaction starting on or after the first dose of randomized treatment (i.e. treatment emergent). The hypersensitivity terms were defined as standardised Medical Dictionary for Regulatory Activities query (SMQ) terms. […]
The following safety laboratory assessments were analysed: • S-phosphate: inorganic phosphorous forms an ammonium phosphomolybdate complex having the formula (NH4)3[PO4](MoO3)12 with ammonium molybdate in the presence of sulfuric acid. The complex was determined photometrically in the ultraviolet region (340 nm) of the spectrum using the Roche Modular and Cobas Analyzer. • iFGF23 and cFGF23: the human intact FGF23 was measured by the 2nd generation Elisa kit manufactured by Immonotropics, Inc, San Clemente, CA. […] The human C-terminal FGF23 was measured by the Elisa kit manufactured by Immonotropics, Inc, San Clemente, CA. […] After evaporation under nitrogen, the residue was reconstituted and analyzed using Liquid Chromatography (LC) with Tandem Mass Spectrometric detection (MS/MS). […] A direct relationship exists between the amount of PTH present in the patient sample and the amount of relative light units (RLUs) detected by the system. • Ionized calcium: Measured by the IL GEM Premier 3500 PAK cartridge. […]

Substance	risk for iFGF23-mediated reduction of serum phosphate levels and development of hypophosphatemia [1]	change of the iFGF23 level (human intact FGF23)
iron polymaltose	highest risk	
saccharated iron oxide	highest risk	
iron isomaltoside 1000 [IIM]		essentially no change
